How the values were obtained:
CDK8/CycC = biological target: T1, CDK8/CycC (Homo sapiens, UniProt P49336); test: CDK8 inhibitory activity (TR-FRET, Kinase Tracer-236 displacement); format: binding; details: 1 μM of the test compound; read-out: Percent inhibition of CDK8 activity (%)
T1 construct: purchased Carna Biosciences
In short: (§1)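 Binding assay measuring displacement of Kinase Tracer-236 (60 nM in the added mix) by compound, using Eu-cryptate anti-GST antibody with CDK8/CycC (84 ng/mL) or CDC2L6/CycC (87 ng/mL) solutions. After 1 h at room temperature, TR-FRET read at 615 and 665 nm (excitation 320 nm).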

CDK19 (CDC2L6/CycC) = biological target: T2, CDK19 (CDC2L6/CycC) (Homo sapiens, UniProt Q9BWU1); test: CDK19 inhibitory activity (TR-FRET, Kinase Tracer-236 displacement); format: binding; details: 1 μM of the test compound; read-out: Percent inhibition of CDK19 activity (%)
T2 construct: purchased Carna Biosciences
T2 sequence (Q9BWU1 whole entry): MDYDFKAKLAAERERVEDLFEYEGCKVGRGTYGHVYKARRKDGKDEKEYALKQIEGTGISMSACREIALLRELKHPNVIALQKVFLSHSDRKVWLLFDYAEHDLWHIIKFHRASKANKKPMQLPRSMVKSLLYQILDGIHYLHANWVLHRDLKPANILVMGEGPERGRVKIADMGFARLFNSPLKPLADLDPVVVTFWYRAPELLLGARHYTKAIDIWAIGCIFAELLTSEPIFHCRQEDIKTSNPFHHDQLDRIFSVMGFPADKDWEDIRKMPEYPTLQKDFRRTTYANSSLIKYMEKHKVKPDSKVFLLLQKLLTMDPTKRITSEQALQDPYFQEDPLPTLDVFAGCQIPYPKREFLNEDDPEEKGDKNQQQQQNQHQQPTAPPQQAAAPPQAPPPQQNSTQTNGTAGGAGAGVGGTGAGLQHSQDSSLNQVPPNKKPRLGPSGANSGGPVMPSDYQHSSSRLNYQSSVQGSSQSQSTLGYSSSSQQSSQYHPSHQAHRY
T2 sequence (P24863 whole entry partner): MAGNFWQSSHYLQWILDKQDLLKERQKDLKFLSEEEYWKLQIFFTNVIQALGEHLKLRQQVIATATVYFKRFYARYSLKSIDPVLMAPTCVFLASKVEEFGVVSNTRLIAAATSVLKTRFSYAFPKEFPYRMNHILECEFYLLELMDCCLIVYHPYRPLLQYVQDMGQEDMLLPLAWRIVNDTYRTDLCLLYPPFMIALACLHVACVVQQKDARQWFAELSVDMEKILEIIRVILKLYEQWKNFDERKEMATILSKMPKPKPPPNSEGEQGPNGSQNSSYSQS
In short: as §1

[1] = test system: human multiple myeloma RPMI8226 cells; test: Inhibitory activity against human multiple myeloma RPMI8226 cell growth (CellTiter-Glo); format: cell-based; details: Homo sapiens, RPMI-8226, 192 h, 1 μM of the test compound, cultured for 8 days; read-out: Percent inhibition of RPMI8226 cell growth (%)
In short: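 RPMI8226 cells (300/well) cultured 1 day at 37 °C, 5% CO2, then given compound at 1 μM for 8 days. ATP luminescence (CellTiter-Glo) read; percent inhibition relative to 0.1% DMSO wells.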

[2] = test system: SW480 human colorectal cancer cells; test: Antitumor efficacy in mice bearing SW480 human colorectal cancer xenograft; format: in vivo, BALB/c female nude mice; details: Mus musculus, SW480, 336 h, oral, 1 dose per day, 14 days, percent tumor growth relative to control group, read-out: T/C (%)
Procedure: The compound of the present invention was evaluated for its antitumor efficacy in mice bearing cancer derived from SW480 human colorectal cancer cells by the following method.
SW480 human colorectal cancer cells were transplanted into 6- to 7-week-old BALB/c female nude mice (CLEA Japan) by subcutaneous injection of 2.0×10^6 cells per mouse. At 7 to 14 days after the transplantation, the size of the engrafted tumor was measured, and the tumor volume was calculated according to the following formula. Tumor volume=major axis×minor axis×minor axis×(½)
Test subjects having an engrafted tumor with a tumor volume of approximately 100 mm^3 were selected and used in the experiment (6 subjects per group). A suspension of each test compound in a 0.5% methylcellulose solution (Wako Pure Chemical Industries) was orally administered to the mice for 14 days at the dose (mg/kg body weight, indicating the amount per dose) and the number of doses shown in Table 4. On the day before the start of the administration and the day before the completion of the administration, the tumor size was measured, and the tumor volume was calculated.
Percent tumor growth (T/C (%)) of the test compound administration group relative to the control administration group was calculated according to the following formula. T/C(%)=(tumor volume of the test compound administration group after the completion of the administration−tumor volume of the test compound administration group at the day before the start of the administration)/(tumor volume of the control administration group after the completion of the administration−tumor volume of the control administration group at the day before the start of the administration))×100

T1 sequence (P49336 whole entry): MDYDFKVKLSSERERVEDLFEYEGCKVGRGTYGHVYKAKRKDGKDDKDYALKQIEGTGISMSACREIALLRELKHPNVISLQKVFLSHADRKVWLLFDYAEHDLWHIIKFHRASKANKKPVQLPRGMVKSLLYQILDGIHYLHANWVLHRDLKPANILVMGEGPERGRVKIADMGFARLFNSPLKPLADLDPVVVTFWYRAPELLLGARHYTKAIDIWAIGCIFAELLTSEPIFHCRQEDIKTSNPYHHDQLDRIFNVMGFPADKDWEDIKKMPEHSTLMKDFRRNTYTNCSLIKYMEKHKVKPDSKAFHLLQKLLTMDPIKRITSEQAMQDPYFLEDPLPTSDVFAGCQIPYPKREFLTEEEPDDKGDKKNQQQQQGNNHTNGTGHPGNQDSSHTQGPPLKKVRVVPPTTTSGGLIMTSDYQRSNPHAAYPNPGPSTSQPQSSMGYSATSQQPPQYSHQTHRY
T1 sequence (P24863 whole entry partner): as the sequence (P24863 whole entry partner) above

Row | inhibition at 1 µM (CDK8/CycC) | inhibition at 1 µM (CDK19 (CDC2L6/CycC)) | Structure (SMILES) | inhibition at 1 µM [1] | response vs control in vivo at 50 mg/kg [2] | response vs control in vivo at 30 mg/kg ([2]; 30 mg/kg)
1 | 101% | 96% | O=C(/C=C/c1cncc(F)c1-c1cnn(C2CC2)c1)Nc1ccc(CN2CCOCC2)cc1F [Example 273, (2E)-3-(4-(1-Cyclopropyl-1H-pyrazol-4-yl)-5-fluoropyridin-3-yl)-N-(2-fluoro-4-(morpholin-4-ylmethyl)phenyl)acrylamide] | 64% | 36% | –
2 | 104% | 100% | O=C(/C=C/c1cncc(F)c1-c1cnn(C2CC2)c1)Nc1ccc2c(c1)CN(CC(F)(F)F)C2 [Example 324, (2E)-3-(4-(1-Cyclopropyl-1H-pyrazol-4-yl)-5-fluoropyridin-3-yl)-N-(2-(2,2,2-trifluoroethyl)-2,3-dihydro-1H-isoindol-5-yl)acrylamide] | 58% | – | 29%
3 | 99% | 99% | O=C(/C=C/c1cnccc1-c1cnn(C2CC2)c1)Nc1ccc(CN2CCOCC2)cc1F [Example 194, (2E)-3-(4-(1-Cyclopropyl-1H-pyrazol-4-yl)pyridin-3-yl)-N-(2-fluoro-4-(morpholin-4-ylmethyl)phenyl)acrylamide] | 53% | 36% | –
4 | 92% | 102% | O=C(/C=C/c1cnccc1-c1cnn(C2CC2)c1)Nc1ccc(CN2CCOCC2)cc1 [Example 97, (2E)-3-(4-(1-Cyclopropyl-1H-pyrazol-4-yl)pyridin-3-yl)-N-(4-(morpholin-4-ylmethyl)phenyl)acrylamide] | 53% | 37% | –

Source: US9957251B2 (Takeda Pharmaceutical Company Limited, priority 2014, dated 2018)
